Here are results for 8 compounds from publication PMC9323974, “Palladium(II) Complexes of Substituted Salicylaldehydes: Synthesis, Characterization and Investigation of Their Biological Profile” (Pharmaceuticals, 2022).

The nature of assay [1]: Reduction of hydrogen peroxide. Particulars: compound 0.1 mM. As to the method: S1 Antioxidant biological assay
The antioxidant activity of the compounds was evaluated via their ability to scavenge in […]
vitro free radicals such as DPPH and ABTS and to reduce H2O2. […]
S1.3 Reduction of hydrogen peroxide
The ability of the compounds to reduce hydrogen peroxide (H2O2) was estimated according […]
to the method described in the literature [S2]. The reaction mixture contained 20 μL of each of the […]
tested compounds (0.1 mM) and 5 μL H 2O2 solution (40 mM) in phosphate buffer (50 mM, pH 7.4).
The absorbance was measured at 230 nm after 10 min. The antioxidant activity (reduction of […]

Assay [2] deals with S. aureus, B. subtilis, E. coli, X. campestris. Kind of assay: MIC stated for all tested bacterial strains. Format: cell-based. Particulars: all tested microbes. As to the method: S2 Antibacterial activity
The antimicrobial activity of the compounds was evaluated by determining their respective MIC values towards two Gram–(–) (Escherichia coli NCTC 29212 (E. coli) and Xanthomonas campestris ATCC 1395 (X. campestris)) and two Gram–(+) (Staphylococcus aureus ATCC 6538 (S. aureus) and Bacillus subtilis ATCC 6633 (B. subtilis)) bacterial species. Cultures of these microbial strains were grown on a rich selective agar medium and stored at 4°C. The selective media used were Nutrient Agar or Broth for B. subtilis and S. aureus, Yeast Mold Agar or Broth for X. campestris and Luria Agar or Broth for E. coli. Cells picked from the surface of the stored cultures were used to initiate liquid pre–cultures of the same selective medium at an initial turbidity of roughly 1 McFarland unit. Pre–cultures were incubated for 24 h in a rotary shaking incubator and subsequently they were used to inoculate the test cultures used for the determination of MIC at an initial turbidity of 0.5 McFarland units. The test cultures consisted of Mueller –Hinton broth (Deben Diagnostics Ltd) containing different concentrations of the compounds.
Different concentrations were achieved as follows: the compounds were freshly dissolved in DMSO to a concentration of 1 mg mL–1 and they were diluted with DMSO, using the method of progressive double dilution. Therefore, working solutions with decreasing concentrations of the compounds under investigation were achieved. The working solutions were subsequently diluted to the final desired concentration by addition to the growth medium at a proportion of 2:98. MIC values were determined as the lowest concentrations of the tested compounds that inhibited visible growth of each respective organism after a 24 h incubation [ S3]. Bacterial growth was determined by measuring the turbidity of appropriately diluted cultures at 600 nm with reference to equally diluted sterile growth medium and the inhibition achieved was calculated by comparing the turbidity of each culture to the average of the turbidity of three non–inhibited cultures. All test cultures were grown in triplicates and for the determination of MIC, growth had to be inhibited in at least two cultures of the triplicate. Incubation temperature at all stages was 37°C except for X. campestris that was cultivated at 28°C [S4].

The subject of a further assay is EB-DNA adduct (CT DNA). Particulars: cited from earlier work.
The next assay addresses CT DNA. Particulars: cited from earlier work.
The target of the next assay is T1, BSA (Bos taurus, UniProt P02769).
T1 construct: purchased Sigma-Aldrich Co
Particulars: cited from earlier work.

Several values for one entry are separate records, joined by “and”; a condition that tells them apart may be missing. Identical values can stand only once. Like-named read-outs stand apart in the source and are kept apart here.

T1 sequence (P02769 25-607): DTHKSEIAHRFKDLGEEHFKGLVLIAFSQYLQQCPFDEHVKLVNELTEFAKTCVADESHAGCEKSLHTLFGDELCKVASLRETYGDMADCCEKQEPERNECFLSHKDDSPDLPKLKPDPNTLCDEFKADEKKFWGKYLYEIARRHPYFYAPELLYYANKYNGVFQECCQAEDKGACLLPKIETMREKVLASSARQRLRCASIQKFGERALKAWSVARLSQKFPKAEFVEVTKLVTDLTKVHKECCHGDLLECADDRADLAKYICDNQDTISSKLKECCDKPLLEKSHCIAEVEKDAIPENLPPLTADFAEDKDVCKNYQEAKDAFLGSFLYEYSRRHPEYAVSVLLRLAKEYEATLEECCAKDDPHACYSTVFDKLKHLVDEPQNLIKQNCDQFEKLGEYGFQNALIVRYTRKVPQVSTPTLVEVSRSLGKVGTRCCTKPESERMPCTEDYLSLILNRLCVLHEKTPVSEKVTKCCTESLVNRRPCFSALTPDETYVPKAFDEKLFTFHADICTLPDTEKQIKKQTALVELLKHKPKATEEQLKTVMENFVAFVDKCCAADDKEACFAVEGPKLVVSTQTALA

The MIC is the smallest concentration in the dilution series that meets the test's criterion for growth inhibition. In assay [1], `CCN(CC)c1ccc(C=O)c(O)c1` [4-Et2N-saloH, 4-diethylamino-salicylaldehyde, reference compound] gave an H2O2% of 76.57 ± 0.71%. Further, the minimal inhibitory concentration (MIC) in assay [2] (read-out: MIC) is more than 200 µg/mL.
Turning to `COc1ccc(C=O)c(O)c1` [4-OMe-saloH, 4-methoxy-salicylaldehyde, reference compound], in the assay with EB-DNA adduct (CT DNA), the “KSV (Stern–Volmer constant), EB-DNA” value is recorded as 5.19 (±0.17) × 10^4 M^−1; the “kq (EB-DNA quenching constant)” value is on record as 2.26 (±0.07) × 10^12 M^−1s^−1; the “ΔΙ/Ι0 (%) EB-DNA fluorescence quenching” value is reported as 62.5%. The compound further had an H2O2% in assay [1] of 94.24 ± 0.67%. Moreover, at CT DNA, the “Kb (DNA-binding constant)” value is reported as 9.25 (±0.12) × 10^5 M^−1. Further, on BSA, the “K BSA-binding constant” value was 4.11 (±0.23) × 10^5 M^−1 and the “kq BSA-quenching constant” value is recorded as 1.16 (±0.14) × 10^13 M^−1 s^−1. Further, the MIC in assay [2] (read-out: MIC) is more than 200 µg/mL.
`O=Cc1cc(F)ccc1O` [5-F-saloH, 5-fluoro-salicylaldehyde, reference compound] showed an H2O2% in assay [1] of 71.84 ± 0.95%.
On the same count and under the same terms, under `CCN(CC)c1ccc(C=O)c([O][Pd][O]c2cc(N(CC)CC)ccc2C=O)c1` [Complex 1, [Pd(4-Et2N-salo)2]] stands 18.19 ± 0.29%.
Consider `O=Cc1cc(Br)cc(Br)c1[O][Pd][O]c1c(Br)cc(Br)cc1C=O` [Complex 2, [Pd(3,5-diBr-salo)2]], for which the H2O2% in assay [1] was determined as 49.21 ± 0.32%. In assay [2], the MIC was 25 μg/mL and 38 μM.
For `O=Cc1cc(Cl)cc(Cl)c1[O-].O=Cc1cc(Cl)cc(Cl)c1[O-].[Pd+2]` [Complex 3, [Pd(3,5-diCl-salo)2]], the H2O2% in assay [1] came out at 51.26 ± 0.70%.
With `O=Cc1cc(F)ccc1[O-].O=Cc1cc(F)ccc1[O-].[Pd+2]` [Complex 4, [Pd(5-F-salo)2]], the H2O2% in assay [1] is recorded as 48.31 ± 0.67%.
Turning to `COc1ccc(C=O)c([O-])c1.COc1ccc(C=O)c([O-])c1.[Pd+2]` [Complex 5, [Pd(4-OMe-salo)2]], in assay [1], the H2O2% is recorded as 58.38 ± 0.54%.
